Values quoted from earlier work, collected in US20060270610A1, “Novel compounds for hypoxic cell therapy and imaging” (priority 2005, published 2006).
Where two headings read alike, the source gives them in different places.

Experiments:
[1] = biological target: T1, NBMPR (nitrobenzylthioinosine)-sensitive equilibrative nucleoside transporter (Homo sapiens, UniProt Q99808); details: in vitro, erythrocytes
T1 construct: equilibrative nucleoside transporter in erythrocytes; endogenous in cells
T1 sequence (Q99808 1-456): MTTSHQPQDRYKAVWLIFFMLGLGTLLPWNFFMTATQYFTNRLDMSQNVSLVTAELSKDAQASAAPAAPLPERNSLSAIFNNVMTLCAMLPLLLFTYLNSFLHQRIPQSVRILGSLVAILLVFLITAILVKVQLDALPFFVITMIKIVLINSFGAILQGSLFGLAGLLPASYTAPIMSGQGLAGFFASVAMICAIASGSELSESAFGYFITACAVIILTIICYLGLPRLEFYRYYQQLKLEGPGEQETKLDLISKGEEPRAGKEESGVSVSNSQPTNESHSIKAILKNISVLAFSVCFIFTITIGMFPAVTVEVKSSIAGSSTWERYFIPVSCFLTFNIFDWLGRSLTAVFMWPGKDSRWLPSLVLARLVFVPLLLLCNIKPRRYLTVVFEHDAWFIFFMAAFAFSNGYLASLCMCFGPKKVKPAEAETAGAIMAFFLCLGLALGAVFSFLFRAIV

murine tumor models = details: three different murine tumor models; greater than [18F]FMISO
[2] = rats, via the renal system; compared with [18F]FMISO

In the case of `O=[N+]([O-])c1nccn1[C@H]1O[C@H](CI)[C@@H](O)[C@@H]1O` [IAZA, 1-α-D-(5-dexoy-5-iodorabinofuranosyl)-2-nitroimidazole], the “transport by NBMPR-sensitive equilibrative nucleoside transporter” value [1] is given as “not transported”.
In the case of `OC[C@H]1OC(O)[C@H]([18F])[C@@H](O)[C@@H]1O` (stereo partly drawn) [[^18F]FDG], the “uptake in normal brain tissue” value (human, in vivo) is given as “taken up as a reflection of glucose metabolism in healthy brain”.
In the case of `O=[N+]([O-])c1nccn1CC(O)C[18F]` (stereo not drawn) [[^18F]FMISO], the “uptake in normal brain tissue” value (human, in vivo) is given as “taken up non-specifically by brain”.
For `O=[N+]([O-])c1nccn1[C@H]1O[C@H](C[18F])[C@@H](O)[C@@H]1O` [[^18F] 1-α-D-FAZA], the “tumor:blood ratios relative to [18F]FMISO” value (murine tumor models) is given as 2-4 times, the “clearance from blood, viscera and muscle tissue” value [2] is given as “faster clearance” and the “uptake in normal brain tissue” value (patients studied sequentially) is given as “absence of [^18F] 1-α-D-FAZA uptake”.
